Results taken from US7655420B2, “Methods to increase or decrease bone density” (Celltech R & D, Inc., priority 2002, dated 2010).
“Also recorded” adds a separate entry of the source.

Assays:
SOST expression = assay: BMP-6 induction of SOST expression in hMSC cells with test compounds (RT-PCR); assay type: cell-based, human; details: for Results (effect on BMP-6 induction of SOST expression): BMP-6, 72 hrs; for induction of SOST expression by BMP-6 (BMP-induced SOST expression): 72 hrs, no single concentration stated in the sentence
Method: The previous example illustrates that SOST expression was enhanced by bone morphogenetic proteins and modulated by steroids such as dexamethasone. In this example, human MSC cells were incubated with bone morphogenetic proteins in the presence of various test agents to determine whether other steroids and compounds could affect the BMP-induction of SOST. SOST expression was monitored by reverse transcriptase polymerase chain reaction (RT-PCR).
Human mesenchymal cells (hMSCs) were plated in regular growth media containing 2% FCS and treated with BMP-6 either alone or in combination with the test compounds. The cells were harvested 72 hrs later and RNA was prepared for RT-PCR analysis of SOST expression.

[1] = system: caspase activity in hMSC cells; assay: apoptosis of hMSC cells by caspase activity (Homogeneous Caspase ELISA); assay type: cell-based, human; details: for human sclerostin-induced increase in caspase activity, effect of caspase inhibitors / apoptosis of hMSC cells (caspase activity), rat versus human sclerostin: hMSC cells, 24 hrs; for human sclerostin-induced increase in caspase activity, effect of caspase inhibitors: Roche ELISA; for caspase activity: hMSC in osteoblast-inducing media, 20 μg/ml sclerostin or other protein, 24 hours
Method: Human mesenchymal (hMSC) cells were plated in Osteoblast-inducing media (Biowhittaker's MSCGM medium supplemented with 100 nM dexamethasone, 50 μg/ml ascorbic acid, and 10 mM β-glycerophosphate) at a density of 10,000 cells/cm^2 in 96-well dishes.
For apoptosis assays, cells were treated with sclerostin or commercially available preparations of the BMP antagonists noggin, chordin, gremlin or twisted gastrulation (Tsg) for 24 hours prior to assay for caspase activity. In some experiments, cells were treated for various times with a partially purified preparation of baculovirus-expressed human sclerostin (0 to 30 μg/ml) or an equal volume of a protein preparation purified from Sf9 conditioned media (control) in the absence or presence of Calbiochem's caspase inhibitors. Cells were harvested and processed for apoptosis assays using the Homogeneous Caspase ELISA (Roche) or Cell Death (Histone-Associated DNA Fragmentation, Roche).

For `CC(=O)S[C@@H]1CC2=CC(=O)CC[C@]2(C)[C@H]2CC[C@@]3(C)[C@@H](CC[C@@]34CCC(=O)O4)[C@H]12` [Spironolactone], the “Results (effect on BMP-6 induction of SOST expression)” value (shortened to “Results”) (SOST expression; compound at 1 × 10^−6 M) was “No Effect” and the “Results” value (SOST expression; compound at 1 × 10^−7 M) was “No Effect”.

For `CC1(C)O[C@@H]2C[C@H]3[C@@H]4C[C@H](F)C5=CC(=O)C=C[C@]5(C)[C@@]4(F)[C@@H](O)C[C@]3(C)[C@]2(C(=O)CO)O1` [Fluocinolone acetonide], the “induction of SOST expression by BMP-6 (BMP-induced SOST expression)” value (shortened to “induction … (BMP-induced SOST expression)”) (SOST expression) was “blocks”, the “Results” value (SOST expression; compound at 1 × 10^−7 M) was “Inhibition” and the “Results” value (SOST expression; compound at 1 × 10^−7 M, listed as Fluo) was “blocked”. For the same molecule, the “Results” value (SOST expression; compound at 1 × 10^−7 M, listed as fluocinolone acetonide) was “effectively blocked”.

For `C[C@]12CC[C@@H]3c4ccc(O)cc4C[C@@H](CCCCCCCCC[S+]([O-])CCCC(F)(F)C(F)(F)F)[C@H]3[C@@H]1CC[C@@H]2O` (stereo partly drawn) [ICI 182,780], the “Results” value (SOST expression; compound at 1 × 10^−6 M) was “minimal effects; also recorded: No Effect”.

For `CCc1[nH]c(-c2ccc(OC)cc2)nc1-c1ccncc1` [SB202474], the “Results” value (SOST expression; compound at 2 × 10^−6 M) was “No Effect”.

For `CCCCC[C@H](O)/C=C/[C@H]1[C@H](O)CC(=O)[C@@H]1C/C=C\CCCC(=O)O` [Prostaglandin E2], the “induction … (BMP-induced SOST expression)” value (SOST expression) was “blocks”, the “Results” value (SOST expression; compound at 1 × 10^−6 M) was “Inhibition” and the “Results” value (SOST expression; compound at 1 × 10^−6 M, listed as PGE2) was “blocked”. For the same molecule, the “Results” value (SOST expression; compound at 1 × 10^−6 M, listed as prostaglandin E2) was “effectively blocked” and the “Results” value (SOST expression; compound at 1 × 10^−7 M) was “Inhibition”.

With `C[C@H](CCC(=O)NCCS(=O)(=O)O)[C@H]1CC[C@H]2[C@@H]3[C@@H](O)C[C@@H]4C[C@H](O)CC[C@]4(C)[C@H]3CC[C@]12C` [Tauroursodeoxycholic acid] the “Results” value (SOST expression; compound at 2 × 10^−6 M) was “No Effect”, the “Results” value (SOST expression; compound at 2 × 10^−6 M, listed as tauroursodeoxycholic acid) was “minimal effects” and the “Results” value (SOST expression; compound at 2 × 10^−7 M) was “No Effect”.

For `CC(=O)N[C@@H](CC(=O)O)C(=O)N[C@@H](CCC(=O)O)C(=O)N[C@H](C(=O)N[C@H](C=O)CC(=O)O)C(C)C` [Caspase-3, Inhibitor I, reference compound], the “human sclerostin-induced increase in caspase activity, effect of caspase inhibitors” value [1] was “blocked”, the “human sclerostin-induced increase in caspase activity, effect of caspase inhibitors” value ([1]; listed as Cas-3) was “efficiently blocked” and the “human sclerostin-induced increase in caspase activity, effect of caspase inhibitors” value ([1]; listed as Caspase-3 inhibitor) was “effectively blocked”.

`C[C@]12C=CC(=O)C=C1CC[C@H]1[C@@H]3C[C@@H](O)[C@](O)(C(=O)CO)[C@@]3(C)C[C@H](O)[C@@]12F` [Triamcinolone] was tested, and the “induction … (BMP-induced SOST expression)” value (SOST expression) was “blocks”, the “Results” value (SOST expression; compound at 1 × 10^−7 M) was “blocked; also recorded: Inhibition” and the “Results” value (SOST expression; compound at 1 × 10^−7 M, listed as triamcinolone) was “blocked”.

In the case of `C[S+]([O-])c1ccc(-c2nc(-c3ccncc3)c(-c3ccc(F)cc3)[nH]2)cc1` (stereo not drawn) [SB203580], the “Results” value (SOST expression; compound at 2 × 10^−6 M) is reported as “No Effect”.

For `O=C1C=C(S(=O)(=O)O)c2ccccc2C1=O` [1,2-napthoquinone-4-sulfate], the “Results” value (SOST expression; compound at 1 × 10^−6 M) was “No Effect” and the “Results” value (SOST expression; compound at 5 × 10^−6 M) was “No Effect”.

In the case of `COC(=O)C[C@H](NC(=O)[C@H](C)NC(=O)[C@@H](NC(=O)[C@H](Cc1ccc(O)cc1)NC(=O)OCc1ccccc1)C(C)C)C(=O)CF` [Caspase-1, Inhibitor VI, reference compound], the “human sclerostin-induced increase in caspase activity, effect of caspase inhibitors” value [1] is reported as “blocked”, the “human sclerostin-induced increase in caspase activity, effect of caspase inhibitors” value ([1]; listed as Cas-1) is reported as “efficiently blocked” and the “human sclerostin-induced increase in caspase activity, effect of caspase inhibitors” value ([1]; listed as Caspase-1 inhibitor) is reported as “effectively blocked”.

In the case of `CC[C@H](C)C(=O)O[C@H]1C[C@@H](C)C=C2C=C[C@H](C)[C@H](CC[C@@H]3C[C@@H](O)CC(=O)O3)[C@H]21` [Lovastatin/Mevinolin, Lovastatin], the “Results” value (SOST expression; compound at 1 × 10^−7 M) is reported as “No Effect” and the “Results” value (SOST expression; compound at 1 × 10^−7 M, listed as lovastatin) is reported as “minimal effects”.

With “Parathyroid Hormone (1-34): Calciotrophic Peptide (SVSEIQLMHNLGKHLNSMERVEWLRKKLQDVHNF; Parathyroid hormone; UniProt P01270 32-65, looked up, fragment)” the “Results” value (SOST expression; compound at 1 × 10^−7 M) was “No Effect”.

With `COc1cccc(-c2cc(=O)c3ccccc3o2)c1N` [PD98059] the “Results” value (SOST expression; compound at 2 × 10^−6 M) was “No Effect”.

B1: Tsg: twisted gastrulation, commercially available BMP antagonist (protein, UniProt Q9GZX9 26-223, looked up)
Twisted gastrulation protein …: CNKALCASDVSKCLIQELCQCRPGEGNCSCCKECMLCLGALWDECCDCVGMCNPRNYSDTPPTSKSTVEELHEPIPSLFRALTEGDTQLNWNIVSFPVAEELSHHENLVSFLETVNQPHHQNVSVPSNNVHAPYSSDKEHMCTVVYFDDCMSIHQCKISCESMGASKYRWFHNACCECIGPECIDYGSKTVKCMNCMF
With B1 the caspase activity [1] was “no increase; also recorded: no significant effect”.

B2: chordin: commercially available BMP antagonist (protein, UniProt Q9H2X0 27-955, looked up)
Chordin: AGPEPPVLPIRSEKEPLPVRGAAGCTFGGKVYALDETWHPDLGEPFGVMRCVLCACEAPQWGRRTRGPGRVSCKNIKPECPTPACGQPRQLPGHCCQTCPQERSSSERQPSGLSFEYPRDPEHRSYSDRGEPGAEERARGDGHTDFVALLTGPRSQAVARARVSLLRSSLRFSISYRRLDRPTRIRFSDSNGSVLFEHPAAPTQDGLVCGVWRAVPRLSLRLLRAEQLHVALVTLTHPSGEVWGPLIRHRALAAETFSAILTLEGPPQQGVGGITLLTLSDTEDSLHFLLLFRGLLEPRSGGLTQVPLRLQILHQGQLLRELQANVSAQEPGFAEVLPNLTVQEMDWLVLGELQMALEWAGRPGLRISGHIAARKSCDVLQSVLCGADALIPVQTGAAGSASLTLLGNGSLIYQVQVVGTSSEVVAMTLETKPQRRDQRTVLCHMAGLQPGGHTAVGICPGLGARGAHMLLQNELFLNVGTKDFPDGELRGHVAALPYCGHSARHDTLPVPLAGALVLPPVKSQAAGHAWLSLDTHCHLHYEVLLAGLGGSEQGTVTAHLLGPPGTPGPRRLLKGFYGSEAQGVVKDLEPELLRHLAKGMASLMITTKGSPRGELRGQVHIANQCEVGGLRLEAAGAEGVRALGAPDTASAAPPVVPGLPALAPAKPGGPGRPRDPNTCFFEGQQRPHGARWAPNYDPLCSLCTCQRRTVICDPVVCPPPSCPHPVQAPDQCCPVCPEKQDVRDLPGLPRSRDPGEGCYFDGDRSWRAAGTRWHPVVPPFGLIKCAVCTCKGGTGEVHCEKVQCPRLACAQPVRVNPTDCCKQCPVGSGAHPQLGDPMQADGPRGCRFAGQWFPESQSWHPSVPPFGEMSCITCRCGAGVPHCERDDCSLPLSCGSGKESRCCSRCTAHRRPAPETRTDPELEKEAEGS
In the case of B2, the caspase activity [1] is reported as “no increase; also recorded: no significant effect”.

B3: inactivated sclerostin: inactive preparation of sclerostin, as determined by lack of effects in other biological and biochemical assays (protein, UniProt Q9BQB4 24-213, looked up)
Sclerostin: QGWQAFKNDATEIIPELGEYPEPPPELENNKTMNRAENGGRPPHHPFETKDVSEYSCRELHFTRYVTDGPCRSAKPVTELVCSGQCGPARLLPNAIGRGKWWRPSGPDFRCIPDRYRAQRVQLLCPGGEAPRARKVRLVASCKCKRLTRFHNQSELKDFGTEAARPQKGRKPRPRARSAKANQAELENAY
modifications: inactivated preparation
In the case of B3, the caspase activity [1] is reported as “no significant effect” and the caspase activity ([1]; listed as inactive preparation of sclerostin) is reported as “did not significantly affect”.

B4: rat sclerostin: rat sclerostin protein (SEQ ID NO:8) (protein, listed as Rattus norvegicus)
chain: MQLSLAPCLACLLVHAAFVAVESQGWQAFKNDATEIIPGLREYPEPPQELENNQTMNRAENGGRPPHHPYDTKDVSEYSCRELHYTRFVTDGPCRSAKPVTELVCSGQCGPARLLPNAIGRVKWWRPNGPDFRCIPDRYRAQRVQLLCPGGAAPRSRKVRLVASCKCKRLTRFHNQSELKDFGPETARPQKGRKPRPRARGAKANQAELENAY
For B4, the “apoptosis of hMSC cells (caspase activity), rat versus human sclerostin” value [1] was “induced the apoptosis” and the “apoptosis of hMSC cells (caspase activity), rat versus human sclerostin” value ([1]; listed as Rat sclerostin) was “increased the apoptosis of hMSC cells but to a lesser extent”.

B5: gremlin: commercially available BMP antagonist (protein, UniProt O60565 25-184, looked up)
Gremlin-1: KKKGSQGAIPPPDKAQHNDSEQTQSPQQPGSRNRGRGQGRGTAMPGEEVLESSQEALHVTERKYLKRDWCKTQPLKQTIHEEGCNSRTIINRFCYGQCNSFYIPRHIRKEEGSFQSCSFCKPKKFTTMMVTLNCPELQPPTKKKRVTRVKQCRCISIDLD
For B5, the caspase activity [1] was “no increase; also recorded: no significant effect”.
